From PubChem BioAssay AID296 (DTP/NCI, 2004)
Values joined by “and” are separate entries in the source; they are usually repeats but may differ in a detail not shown here. Equal values may be shown once. Inconclusive results are not listed.

Test system: MX-1 breast xenograft, nude mice, tumor weight T/C
Experiment: NCI In Vivo Anticancer Drug Screen. Data for tumor model Human Mammary Carcinoma MX-1 Xenograft (intrarenal inoculation) in NU/NU Swiss (nude) mice
Conditions: endpoint: mean tumor weight change, higher = larger tumour
Procedure, shortened: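 Tumor-bearing mice were treated with test compound alongside a vehicle-treated control group. Survival or tumor size was measured, and activity is expressed as the treated-group value divided by the control-group value.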

[1] = dose: 300.0 mg/kg/injection, schedule: Q04DX003 (sc), vehicle: Klucel (hydroxypropylcellulose) (HPC)
[2] = dose: 600.0 mg/kg/injection, schedule: Q04DX003 (sc), vehicle: Klucel (hydroxypropylcellulose) (HPC)
[3] = dose: 1200.0 mg/kg/injection, schedule: Q04DX003 (sc), vehicle: Klucel (hydroxypropylcellulose) (HPC)
[4] = dose: 50.0 mg/kg/injection, schedule: Q01DX010 (sc), vehicle: saline with Tween-80
[5] = dose: 300.0 mg/kg/injection, schedule: Q04DX003 (sc), vehicle: saline with Tween-80
[6] = dose: 600.0 mg/kg/injection, schedule: Q04DX003 (sc), vehicle: saline with Tween-80
[7] = dose: 1200.0 mg/kg/injection, schedule: Q04DX003 (sc), vehicle: saline with Tween-80
[8] = dose: 300.0 mg/kg/injection, schedule: Q04DX003 (sc), vehicle: saline
[9] = dose: 600.0 mg/kg/injection, schedule: Q04DX003 (sc), vehicle: saline
[10] = dose: 2400.0 mg/kg/injection, schedule: Q04DX003 (sc), vehicle: saline with Tween-80
[11] = dose: 1200.0 mg/kg/injection, schedule: Q04DX003 (sc), vehicle: saline

SMILES: O=C1C(NCCO)=C(N2CC2)C(=O)C(NCCO)=C1N1CC1
- T/C (dose: 0.5 mg/kg/injection, schedule: Q04DX003 (ip), vehicle: saline): 69 % of control
- T/C (dose: 0.75 mg/kg/injection, schedule: Q04DX003 (sc), vehicle: saline): 64 % of control
- T/C (dose: 1.0 mg/kg/injection, schedule: Q04DX003 (ip), vehicle: saline): 50 % of control
- T/C (dose: 1.5 mg/kg/injection, schedule: Q04DX003 (sc), vehicle: saline): 37 % of control
- T/C (dose: 2.0 mg/kg/injection, schedule: Q04DX003 (ip), vehicle: saline): 29 % of control
- T/C (dose: 2.0 mg/kg/injection, schedule: Q04DX003 (sc), vehicle: saline): 66 % of control
- T/C (dose: 3.0 mg/kg/injection, schedule: Q04DX003 (sc), vehicle: saline): 9 % of control
- T/C (dose: 4.0 mg/kg/injection, schedule: Q04DX003 (ip), vehicle: saline): 8 % of control
- T/C (dose: 8.0 mg/kg/injection, schedule: Q04DX003 (sc), vehicle: saline): -90 % of control

SMILES: C(C#CCN1CCOCC1)#CCN1CCOCC1
- T/C [1]: 72 % of control
- T/C [2]: 84 % of control
- T/C [3]: 61 % of control

SMILES: S=C(Nc1ccc(Cl)c(Cl)c1)N1c2ccccc2-n2cccc2C1c1cccnc1 (centres undefined)
- T/C [1]: 123 % of control
- T/C [2]: 89 % of control
- T/C [3]: 108 % of control
- T/C (dose: 2400.0 mg/kg/injection, schedule: Q04DX003 (sc), vehicle: Klucel (hydroxypropylcellulose) (HPC)): 108 % of control

SMILES: O=c1nc(-c2ccco2)sc(=O)[nH]1
- T/C (dose: 75.0 mg/kg/injection, schedule: Q04DX003 (sc), vehicle: Klucel (hydroxypropylcellulose) (HPC)): 122 % of control
- T/C (dose: 150.0 mg/kg/injection, schedule: Q04DX003 (sc), vehicle: Klucel (hydroxypropylcellulose) (HPC)): 90 % of control
- T/C [1]: 54 % of control
- T/C [2]: 58 % of control

SMILES: Oc1cc2c3c(c1)c1cc4c(cc1c[n+]3CC2)OCO4
- T/C (dose: 200.0 mg/kg/injection, schedule: Q04DX003 (sc), vehicle: water): 72 % of control
- T/C (dose: 400.0 mg/kg/injection, schedule: Q04DX003 (sc), vehicle: water): 100 % of control
- T/C (dose: 1600.0 mg/kg/injection, schedule: Q04DX003 (sc), vehicle: water): 72 % of control

SMILES: COC1=NCN=C2SC=C(N)N=C12
- T/C (dose: 37.5 mg/kg/injection, schedule: Q04DX003 (sc), vehicle: suspension in saline): 50 % of control
- T/C (dose: 75.0 mg/kg/injection, schedule: Q04DX003 (sc), vehicle: suspension in saline): 30 % of control
- T/C (dose: 150.0 mg/kg/injection, schedule: Q04DX003 (sc), vehicle: suspension in saline): 43 % of control

SMILES: O=C(NC(Cc1ccc(I)cc1)C(=O)O)c1ccc(Br)cc1 (centres undefined)
- T/C (dose: 75.0 mg/kg/injection, schedule: Q04DX003 (ip), vehicle: sodium bicarbonate): -67 % of control

SMILES: CCN(CC)CCCC(C)Nc1c2ccc(Cl)cc2nc2ccc(OC)cc12 (centres undefined)
- T/C [4]: 158 % of control
- T/C (dose: 100.0 mg/kg/injection, schedule: Q01DX010 (sc), vehicle: saline with Tween-80): 110 % of control

SMILES: CCOC(=O)C(C)(C)Oc1ccc(Cl)cc1
- T/C [5]: 95 % of control
- T/C [6]: 90 % of control
- T/C [7]: 71 % of control

SMILES: COC(=O)c1ccoc1
- T/C (dose: 150.0 mg/kg/injection, schedule: Q04DX003 (sc), vehicle: saline): 123 % of control
- T/C [8]: 89 % of control
- T/C [9]: 66 % of control

SMILES: CO[C@H]1Nc2c(ccc(C)c2O)C(=O)N2C=C(/C=C/C(N)=O)C[C@@H]12
- T/C (dose: 0.5 mg/kg/injection, schedule: Q04DX003 (sc), vehicle: saline + alcohol): 18 % of control and 40 % of control
- T/C (dose: 2.0 mg/kg/injection, schedule: Q04DX003 (sc), vehicle: saline + alcohol): -100 % of control

SMILES: N#CCCSC(=S)C1CCCC1=N (centres undefined)
- T/C [5]: 76 % of control
- T/C [6]: 87 % of control
- T/C [7]: 76 % of control
- T/C [10]: 85 % of control

SMILES: N#CN=[N+]([O-])c1ccc(C(=O)O)cc1
- T/C (dose: 11.25 mg/kg/injection, schedule: Q04DX003 (sc), vehicle: Klucel (hydroxypropylcellulose) (HPC)): 124 % of control
- T/C (dose: 22.5 mg/kg/injection, schedule: Q04DX003 (sc), vehicle: Klucel (hydroxypropylcellulose) (HPC)): 87 % of control
- T/C (dose: 45.0 mg/kg/injection, schedule: Q04DX003 (sc), vehicle: Klucel (hydroxypropylcellulose) (HPC)): 103 % of control

SMILES: Cn1c2nc(=O)n(-c3ccccc3)c(=O)c-2nc2c1CCCC2
- T/C (dose: 37.5 mg/kg/injection, schedule: Q04DX003 (sc), vehicle: saline with Tween-80): 104 % of control
- T/C (dose: 75.0 mg/kg/injection, schedule: Q04DX003 (sc), vehicle: saline with Tween-80): 111 % of control
- T/C (dose: 150.0 mg/kg/injection, schedule: Q04DX003 (sc), vehicle: saline with Tween-80): 87 % of control

SMILES: Nc1ccc2ccc(NS(=O)(=O)N3CCCCC3)cc2c1
- T/C (dose: 150.0 mg/kg/injection, schedule: Q04DX003 (ip), vehicle: saline with Tween-80): 110 % of control
- T/C (dose: 300.0 mg/kg/injection, schedule: Q04DX003 (ip), vehicle: saline with Tween-80): 72 % of control
- T/C (dose: 600.0 mg/kg/injection, schedule: Q04DX003 (ip), vehicle: saline with Tween-80): 86 % of control
- T/C (dose: 1200.0 mg/kg/injection, schedule: Q04DX003 (ip), vehicle: saline with Tween-80): 92 % of control

SMILES: O=C(O)CC(=O)O.[NH-]C1CCCCC1[NH-].[Pt+2] (centres undefined)
- T/C (dose: 20.0 mg/kg/injection, schedule: Q01DX010 (sc), vehicle: dextrose): 1 % of control and -16 % of control
- T/C (dose: 40.0 mg/kg/injection, schedule: Q01DX010 (sc), vehicle: dextrose): -81 % of control and -78 % of control

SMILES: O=C(O)CP(=O)(O)O
- T/C [8]: 87 % of control
- T/C [9]: 89 % of control
- T/C [11]: 83 % of control
- T/C (dose: 2400.0 mg/kg/injection, schedule: Q04DX003 (sc), vehicle: saline): 59 % of control

SMILES: Nc1ccc2nc3ccc(N)cc3[n+](-c3ccccc3)c2c1
- T/C (dose: 18.0 mg/kg/injection, schedule: Q04DX003 (sc), vehicle: saline): 65 % of control
- T/C (dose: 36.0 mg/kg/injection, schedule: Q04DX003 (sc), vehicle: saline): 119 % of control
- T/C (dose: 72.0 mg/kg/injection, schedule: Q04DX003 (sc), vehicle: saline): 72 % of control
- T/C (dose: 144.0 mg/kg/injection, schedule: Q04DX003 (sc), vehicle: saline): 59 % of control

SMILES: CC1Oc2cc3c(-c4c(O)cc(O)c5c(O)c6c(cc45)OC(C)C(C)C6=O)c(O)cc(O)c3c(O)c2C(=O)C1C (centres undefined)
- T/C (dose: 9.38 mg/kg/injection, schedule: Q04DX003 (ip), vehicle: suspension in saline): 16 % of control

SMILES: CC(=O)/C(=C\c1ccc(Cl)c(Cl)c1)C(=O)CCN(C)C
- T/C (dose: 25.0 mg/kg/injection, schedule: Q04DX003 (ip), vehicle: saline): 166 % of control
- T/C (dose: 50.0 mg/kg/injection, schedule: Q04DX003 (ip), vehicle: saline): 98 % of control
- T/C (dose: 100.0 mg/kg/injection, schedule: Q04DX003 (ip), vehicle: saline): 83 % of control

SMILES: CC1(c2ccc(Cl)cc2)OC(=O)C(=Cc2ccc([N+](=O)[O-])s2)C(=O)O1 (centres undefined)
- T/C [5]: 122 % of control
- T/C [6]: 44 % of control
- T/C [7]: 26 % of control

SMILES: COC1=C(NC(C)=O)C(=O)c2nc(-c3nc(C(=O)O)c(C)c(-c4ccc(OC)c(OC)c4O)c3N)ccc2C1=O
- T/C (dose: 50.0 mg/kg/injection, schedule: Q04DX003 (sc), vehicle: Klucel (hydroxypropylcellulose) (HPC)): 118 % of control
- T/C (dose: 100.0 mg/kg/injection, schedule: Q04DX003 (sc), vehicle: Klucel (hydroxypropylcellulose) (HPC)): 47 % of control

SMILES: O=C1C=CN(C2OC(CO)C(O)C2O)C(=O)C1 (centres undefined)
- T/C (dose: 50.0 mg/kg/injection, schedule: Q01DX010 (sc), vehicle: saline): 92 % of control
- T/C (dose: 100.0 mg/kg/injection, schedule: Q01DX010 (sc), vehicle: saline): 41 % of control
- T/C (dose: 200.0 mg/kg/injection, schedule: Q01DX010 (sc), vehicle: saline): 27 % of control
- T/C (dose: 400.0 mg/kg/injection, schedule: Q01DX010 (sc), vehicle: saline): 75 % of control

SMILES: Cc1ccccc1CN1C2=NCCN2C(=O)C2=C1CCN(S(=O)(=O)c1ccc(Cl)c(S(N)(=O)=O)c1)C2
- T/C [8]: 59 % of control
- T/C [9]: 122 % of control
- T/C [11]: 109 % of control

SMILES: CCC1CN2C(=N1)c1ccccc1-c1cc(Cl)ccc12 (centres undefined)
- T/C (dose: 12.5 mg/kg/injection, schedule: Q01DX010 (sc), vehicle: saline with Tween-80): 108 % of control
- T/C (dose: 25.0 mg/kg/injection, schedule: Q01DX010 (sc), vehicle: saline with Tween-80): 118 % of control
- T/C [4]: 108 % of control

SMILES: CCCCCCC(=O)CC(SCC)c1ccccc1Cl (centres undefined)
- T/C [5]: 75 % of control
- T/C [6]: 88 % of control
- T/C [7]: 72 % of control
- T/C [10]: 96 % of control
